Source: US20030078211A1, “Compositions and methods for inhibiting bone resorption” (Merck & Co., Inc., priority 1998, published 2003)
*: point of attachment. Cbz = O=C(OCc1ccccc1)*; CH2F = FC*

Legend:
[1] = system: 34 kDa Mst kinase fragment; test: In-gel kinase assay of lysates of treated osteoclast-like cells; format: cell-based, mice; details: for activation of a 34 kDa Kinase: FIG. 3; for activation of the 34 kDa Mst Kinase fragment: FIG. 2
Experimental: (§1) Murine co-cultures of osteoblasts and marrow cells are prepared using the methods of Wesolowski, et al., Exp Cell Res, (1995), 219, pp. 679-686, which is incorporated by reference herein in its entirety. Bone marrow cells are harvested from 6-week-old male Balb/C mice by flushing marrow spaces of freshly isolated long bones (tibiae and femora) with α-MEM (minimal essential media) containing penicillin/streptomycin (100 I.U./ml of each and 20 mM Hepes buffer). The bone marrow cells are suspended in α-MEM and the cells are filtered through an approximately 70 μm cell strainer. The filtrate is centrifuged at about 300×g for about 7 minutes. The resulting pellet is resuspended in α-MEM supplemented with fetal calf serum (10% v/v) and 10 nM 1, 25-(OH)2 vitamin D3. These bone marrow isolates are added to sub-confluent monolayers of osteoblastic MB 1.8 cells in cell culture plates and cultured for 7 days at 37° C. in the presence of 5% CO2. Culture media is replenished ever other day. Fusion of the osteoclast precursor cells from bone marrow (with each other) to form multinucleated osteoclast-like cells typically occurs after about 7 days. Osteoclast-like cells are enriched by sequential treatment with collagenase (1 mg/mL in phosphate buffered saline) for one hour at 37° C. and EDTA (0.2 g/L in phosphate buffered saline) for 20 min at 37° C. Non-adherent cells are rinsed away by washing with phosphate buffered saline. Osteoclast-like cells which are resistant to the sequential treatments are present at about 95% purity and are maintained in α-MEM supplemented with fetal calf serum (10% v/v), 10 nM 1,25-(OH)2 vitamin D3, macrophage-colony-stimulating factor (5 ng/mL).
(§2) The compounds to be evaluated are prepared as a solution of the desired concentration in α-MEM. Examples of compounds that can be evaluated include nitrogen-containing bisphosphonates such as alendronate monosodium trihydrate, as well as compounds that block the effects of these inhibitors, such as caspase inhibitors such as Z-Val-Ala-Asp-FMK, Z-Asp-Glu-Val-Asp-FMK, and Z-Tyr-Val-Ala-Asp-FMK. Combinations of compounds can also be evaluated. The solutions of the compounds to be evaluated are added to the cultures for a time period of 17-24 hours. No treatment controls (controls not treated with comcpounds) are prepared by adding equivalent volumes of α-MEM to the control dishes.
Cells are then harvested and lysed in a HEPES (N-(2-hydroxyethyl)piperazine-N′-(2-ethansulfonic acid) or Tris buffer containing the following: β-glycerophosphate (50 mM); Na3VO4 (1 mM); NaF (1 mM); Microcystin LR (1 μM); leupeptin (10 μg/ml); aprotinin (10 μg/ml); phenylmethyl sulfonylfluoride (1 mM). Protein concentrations are determined for each lysate and 5-20 μg are loaded into each lane of a SDS-PAGE (sodium dodecyl sulfate-polyacrylamide gel electrophoresis) gel containing Myelin Basic Protein, or another kinase substrate, which has been polymerized into the gel at a concentration between 50-400 μg/ml. Molecular weight standards are also loaded into one or more lanes of the gels. In-gel kinase assays are run according to a standard procedure based on Kameshita and Fujisawa, 1989 (Anal. Biochem. 183:139-143) and of Gotoh et al., 1990 (Eur. J. Biochem. 193: 661-669), both references being incorporated by reference herein in their entirety. The proteins are electrophoresed in the above gels. The gels are then successively soaked in 50 mM HEPES, pH 7.6; 5 mM 2-mercaptoethanol and each of the following (for each wash): (a) 20% isopropanol; (b) no additions; (c) urea (6 M); (d) Urea (3 M); (e) Urea (0.75 M); and Tween 20 (0.05% vol:vol). Kinase reactions are then run by first soaking the gels in 20 mM HEPES, pH 7.6; 20 mM MgCl2; 2 mM DTT and then in the same buffer containing […] ATP (non-radioactive) with ca. 1000 cpm/pmol ^32P-γ-ATP. The gels are then washed six times with 5% trichloroacetic acid and 1% pyrophosphate.

[2] = system: Mst 1; test: In-gel kinase assay using myelin basic protein as a substrate, purified osteoclast-like cells (FIG. 4); format: cell-based, mice; details: for effect of caspase inhibitor on activation of Mst 1 by alendronate monosodium trihydrate: 20 μM caspase inhibitor with 30 μM alendronate monosodium trihydrate, FIG. 4 lanes 6-8
Experimental: as §1, with “Osteoclast-like cells which are resistant to the sequential treatments are present at about 95% purity and are maintained in α-MEM supplemented with fetal calf serum (10% v/v), 10 nM 1,25-(OH)2 vitamin D3, macrophage-colony-stimulating factor (5 ng/mL).” left out
as §2, with “No treatment controls (controls not treated with comcpounds) are prepared by adding equivalent volumes of α-MEM to the control dishes.” left out
Cells are then harvested and lysed in a HEPES (N-(2-hydroxyethyl)piperazine-N′-(2-ethansulfonic acid) or Tris buffer containing the following: β-glycerophosphate (50 mM); Na3VO4 (1 mM); NaF (1 mM); Microcystin LR (1 μM); leupeptin (10 μg/ml); aprotinin (10 μg/ml); phenylmethyl sulfonylfluoride (1 mM). Protein concentrations are determined for each lysate and 5-20 μg are loaded into each lane of a SDS-PAGE (sodium dodecyl sulfate-polyacrylamide gel electrophoresis) gel containing Myelin Basic Protein, or another kinase substrate, which has been polymerized into the gel at a concentration between 50-400 μg/ml. […]

[3] = system: osteoclast; test: Osteoclast cell cultures and bone resorption assays; format: cell-based
[4] = system: Mst (mammalian Sterile-20-like kinase); test: Bisphosphonate-induced cleavage of Mst in osteoclasts; format: cell-based

For `NCCCC(O)(P(=O)(O)O)P(=O)(O)O` [alendronate monosodium trihydrate, 4-amino-1-hydroxybutylidene-1,1-bisphosphonic acid monosodium trihydrate], the “activation of a 34 kDa Kinase” value ([1]; 10 μM, about 17 hours) was “activation”, the “activation of the 34 kDa Mst Kinase fragment immunoprecipitated by anti-Mst and anti-Krs antibody cocktail” value ([1]; 30 μM, FIG. 1 lane 3) was “activated” and the “activation of the 34 kDa Mst Kinase fragment” value ([1]; 30 μM, about 17 hours) was “activation”. The “activation of a 34 kDa Kinase” value ([1]; 30 μM, about 17 hours) was “activation”, the “activation of the 34 kDa Mst Kinase fragment” value ([1]; 100 μM, about 17 hours) was “activation” and the “activation of Mst 1” value ([2]; 30 μM, osteoclast-like cells, FIG. 4) was “activation”.
With `CC(O)(P(=O)(O)O)P(=O)(O)O` [etidronate disodium] the “activation of the 34 kDa Mst Kinase fragment” value ([1]; 30 μM, about 17 hours) was “fail to activate”, the “activation of a 34 kDa Kinase” value ([1]; 100 μM, 17 hours) was “fail to activate” and the “activation of the 34 kDa Mst Kinase fragment” value ([1]; 100 μM, about 17 hours) was “fail to activate”. The “activation of a 34 kDa Kinase” value ([1]; 300 μM, 17 hours) was “fail to activate”.
For `O=P(O)(O)C(Sc1ccc(Cl)cc1)P(=O)(O)O` [tiludronate disodium], the “activation of the 34 kDa Mst Kinase fragment” value ([1]; 30 μM, about 17 hours) was “fail to activate”, the “activation of a 34 kDa Kinase” value ([1]; 100 μM, 17 hours) was “fail to activate” and the “activation of the 34 kDa Mst Kinase fragment” value ([1]; 100 μM, about 17 hours) was “fail to activate”. For the same compound, the “activation of a 34 kDa Kinase” value ([1]; 300 μM, 17 hours) was “fail to activate”.
In the case of Cbz-Val-Ala-Asp-CH2F, the “activation of the 34 kDa Kinase by alendronate when coincubated with the caspase inhibitor” value ([1]; coincubation with alendronate, FIG. 3 lane 8) is reported as “does not activate”, the “effect of caspase inhibitor on activation of Mst 1 by alendronate monosodium trihydrate” value (“effect of caspase inhibitor” below) [2] is reported as “blocked” and the “effect on the inhibitory effect otherwise observed with a bisphosphonate such as alendronate monosodium trihydrate” value [3] is reported as “can block the inhibitory effect”. The “effect on cleavage of Mst induced by bisphosphonates such as alendronate monosodium trihydrate” value [4] was “prevent the cleavage of Mst”.
For “Z-Asp-Glu-Val-Asp-FMK (Cbz-DEVD-CH2F; SMILES CC(C)[C@H](NC(=O)[C@H](CCC(=O)O)NC(=O)[C@H](CC(=O)O)NC(=O)OCc1ccccc1)C(=O)N[C@@H](CC(=O)O)C(=O)CF)”, the “effect of caspase inhibitor” value [2] was “blocked” and the “effect on the inhibitory effect otherwise observed with a bisphosphonate such as alendronate monosodium trihydrate” value [3] was “can block the inhibitory effect”.
For “Z-Tyr-Val-Ala-Asp-FMK (Cbz-YVAD-CH2F; SMILES CC(C)[C@H](NC(=O)[C@H](Cc1ccc(O)cc1)NC(=O)OCc1ccccc1)C(=O)N[C@@H](C)C(=O)N[C@@H](CC(=O)O)C(=O)CF)”, the “effect of caspase inhibitor” value [2] was “blocked” and the “effect on the inhibitory effect otherwise observed with a bisphosphonate such as alendronate monosodium trihydrate” value [3] was “can block the inhibitory effect”.
